In patent US9783552B2, “Soluble guanylate cyclase activators” (MERCK SHARP & DOHME CORP., priority 2013, dated 2017):

Target: T1, sGC α1/β1 heterodimer (Homo sapiens, UniProt Q02108+Q02153)
T1 construct: expressed in transfected cells
T1 sequence (Q02108 1-690): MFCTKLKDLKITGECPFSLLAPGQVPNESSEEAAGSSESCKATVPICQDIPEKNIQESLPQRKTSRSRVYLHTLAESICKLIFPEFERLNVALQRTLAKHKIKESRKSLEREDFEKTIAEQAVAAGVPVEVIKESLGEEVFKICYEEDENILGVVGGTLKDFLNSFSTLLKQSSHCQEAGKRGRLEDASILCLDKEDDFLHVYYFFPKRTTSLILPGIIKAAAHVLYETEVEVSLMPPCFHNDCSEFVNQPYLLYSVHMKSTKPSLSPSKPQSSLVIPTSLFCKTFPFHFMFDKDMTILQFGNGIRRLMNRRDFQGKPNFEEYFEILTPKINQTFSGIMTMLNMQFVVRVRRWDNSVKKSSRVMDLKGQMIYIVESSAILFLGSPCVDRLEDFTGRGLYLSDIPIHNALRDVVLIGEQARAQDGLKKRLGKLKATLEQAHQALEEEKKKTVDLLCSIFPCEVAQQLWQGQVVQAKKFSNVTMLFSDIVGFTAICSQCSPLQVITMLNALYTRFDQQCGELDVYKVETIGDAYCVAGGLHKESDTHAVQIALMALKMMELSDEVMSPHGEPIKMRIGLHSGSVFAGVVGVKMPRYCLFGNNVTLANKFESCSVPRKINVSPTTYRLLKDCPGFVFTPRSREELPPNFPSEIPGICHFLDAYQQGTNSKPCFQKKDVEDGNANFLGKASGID
T1 sequence (Q02153 1-619): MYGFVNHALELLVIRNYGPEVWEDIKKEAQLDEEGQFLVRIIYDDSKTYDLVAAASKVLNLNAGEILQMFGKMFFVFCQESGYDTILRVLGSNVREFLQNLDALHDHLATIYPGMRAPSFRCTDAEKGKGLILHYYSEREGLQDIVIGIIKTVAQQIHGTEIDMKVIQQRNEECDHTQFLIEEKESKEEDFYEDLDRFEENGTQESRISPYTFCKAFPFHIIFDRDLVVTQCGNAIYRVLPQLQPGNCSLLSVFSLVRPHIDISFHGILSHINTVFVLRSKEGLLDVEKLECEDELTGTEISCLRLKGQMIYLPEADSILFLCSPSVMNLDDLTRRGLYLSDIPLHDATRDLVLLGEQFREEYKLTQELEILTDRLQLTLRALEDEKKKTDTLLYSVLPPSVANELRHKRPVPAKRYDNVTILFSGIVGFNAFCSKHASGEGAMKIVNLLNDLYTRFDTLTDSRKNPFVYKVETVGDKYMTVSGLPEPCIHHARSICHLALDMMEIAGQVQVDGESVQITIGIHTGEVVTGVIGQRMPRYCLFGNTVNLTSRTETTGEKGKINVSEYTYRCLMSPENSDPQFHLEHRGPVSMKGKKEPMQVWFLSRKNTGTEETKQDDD
Test: Cell-Based sGC Functional Assay (CASA Assay)
Details: CHO-K1/sGC cells; for EC50: intracellular cGMP by HTRF, 1 hr at 37° C., IP from 4P fit, presence or absence of 1 μM DETA-NO not given; for Emax: cGMP as percentage of maximum cGMP production of Compound A (=100% activation), read-out: % ACT (percent activation)
Excerpt: Biological Assays: Cell-Based sGC Functional Assay (CASA Assay)
sGC is a heme-containing enzyme that converts GTP to secondary messenger cGMP. Increases in cGMP levels affect several physiological processes including vasorelaxation through multiple downstream pathways. […] Heme-dependent activators (HDAs) preferentially activate sGC containing a ferrous heme group. To determine the effect of sGC activators on enzyme activity, the CASA assay was developed to monitor the generation of cGMP in a cell line that stably expresses the heterodimeric sGC protein.
A CHO-K1 cell line stably expressing the sGC α1/β1 heterodimer was generated using a standard transfection protocol. CHO-K1 cells were transfected with plasmids pIREShyghsGCα1 and pIRESneo-hsGCβ1 simultaneously using FUGENE reagent. Clones that stably express both subunits were selected with hygromycin and neomycin for ˜2 weeks. Clone #7 was chosen for the assay and was designated CHO-K1/sGC. CHO-K1/sGC cells were maintained in F-K12 medium containing 10% heat-inactivated Fetal Bovine Serum (FBS), 100 μg/mL penicillin/streptomycin, 0.5 mg/mL hygromycin and 0.25 mg/mL G418. The cells were then cryopreserved in LN2. On the day of the assay, cells were thawed and resuspended in EBSS Assay Buffer (EAB, Sigma, E3024) supplemented with 5 mM MgCl2, 10 mM HEPES (4-(2-hydroxyethyl)piperazine-1-ethanesulfonic acid) and 0.05% BSA (bovine serum albumin) and cell density was then adjusted to 4×10^5/mL with EAB. IBMX (3-isobutyl-1-methylxanthin, 0.5 mM) was added to inhibit degradation of cGMP. Compounds were diluted from DMSO stock solutions and added to the assay at a final DMSO concentration of 2.5%. Cells were incubated with compounds in the presence and absence of 1 μM of Diethylenetriamine/nitric oxide adduct (DETA-NO; Sigma, 17018) for 1 hr at 37° C. At the end of the incubation period, the reaction was terminated and the cells were lysed with the detection reagents from Cisbio Kits. The level of intracellular cGMP was determined using an HTRF-based assay kit (CisBio, 62GM2PEC), which detects the displacement of a fluorescence labeled cGMP from its specific antibody. The cGMP produced by test compounds was directly compared to the maximum cGMP production (this value was set to equal 100% activation) of the published sGC-HDA Compound A:
[drawing 123] (Example 1 in WO 2010/065275, published Jun. 10, 2010). The test compounds' activity was then expressed as a percentage of Compound A, the standard in every experiment. This percent activation was calculated either in the presence or absence of DETA-NO which was then plotted. IP and maximum fold induction was derived using ADA analysis software for 4P fit.

SMILES | EC50 [nM] | Emax [%]
[2H]C([2H])([2H])n1ccc2c(-c3nc(N)c4c(n3)NC(=O)C4(C)c3ccccc3)nc(CCC(F)(F)C(F)(F)F)nc21 (single isomer, unassigned) [Example 60, 4-Amino-5-methyl-2′-(3,3,4,4,4-pentafluorobutyl)-5-phenyl-7′-trideuteriomethyl-5H,7′H-[2,4′-bipyrrolo[2,3-d]pyrimidin]-6(7H)-one] | 47 | 106
CC(C)NC1(C)C(=O)Nc2nc(-c3nc(CCC(F)(F)C(F)(F)F)nc4c3cnn4C)nc(N)c21 (stereo not shown) [Example 55, 4-Amino-5-(isopropylamino)-5-methyl-2-(1-methyl-6-(3,3,4,4,4-pentafluorobutyl)-1H-pyrazolo[3,4-d]pyrimidin-4-yl)-5H-pyrrolo[2,3-d]pyrimidin-6(7H)-one] | 119 | 118
CCn1ncc2c(-c3nc(N)c4c(n3)NC(=O)C4(C(=O)NC3CC3)C3CC3)nc(CCC(F)(F)C(F)(F)F)nc21 (single isomer, unassigned) [Example 38, 4-Amino-N,5-dicyclopropyl-2-(1-ethyl-6-(3,3,4,4,4-pentafluorobutyl)-1H-pyrazolo[3,4-d]pyrimidin-4-yl)-6-oxo-6,7-dihydro-5H-pyrrolo[2,3-d]pyrimidine-5-carboxamide] | 648 | 112
CC1(c2ccccc2)C(=O)Nc2nc(-c3nc(CCC(F)(F)C(F)(F)F)nc4[nH]ccc34)nc(N)c21 (single isomer, unassigned) [Example 65, 4-Amino-5-methyl-2′-(3,3,4,4,4-pentafluorobutyl)-5-phenyl-5H,7′H-[2,4′-bipyrrolo[2,3-d]pyrimidin]-6(7H)-one] | 255 | 102
[2H]C([2H])([2H])n1ncc2c(-c3nc(N)c4c(n3)NC(=O)C4(CC)C(=O)NC3CC3)nc(CCC(F)(F)C(F)(F)F)nc21 (single isomer, unassigned) [Example 34, 4-Amino-N-cyclopropyl-5-ethyl-2-(6-(3,3,4,4,4-pentafluorobutyl)-1-trideuteriomethyl-1H-pyrazolo[3,4-d]pyrimidin-4-yl)-6-oxo-6,7-dihydro-5H-pyrrolo[2,3-d]pyrimidine-5-carboxamide] | 143 | 122
[2H]C([2H])([2H])OC1(C)C(=O)Nc2nc(-c3nc(CCC(F)(F)C(F)(F)F)nc4c3cnn4C)nc(N)c21 (stereo not shown) [Example 57, 4-Amino-5-methyl-5-trideuteriomethoxy-2-(1-methyl-6-(3,3,4,4,4-pentafluorobutyl)-1H-pyrazolo[3,4-d]pyrimidin-4-yl)-5H-pyrrolo[2,3-d]pyrimidin-6(7H)-one] | 113 | 139
[2H]C([2H])([2H])n1ncc2c(-c3nc(N)c4c(n3)NC(=O)C4(C)C3CC3)nc(CCC(F)(F)C(F)(F)F)nc21 (single isomer, unassigned) [Example 17, 4-Amino-5-cyclopropyl-5-methyl-2-(6-(3,3,4,4,4-pentafluorobutyl)-1-trideuteriomethyl-1H-pyrazolo[3,4-d]pyrimidin-4-yl)-5H-pyrrolo[2,3-d]pyrimidin-6(7H)-one] | 286 | 104
Cn1ncc2c(-c3nc(N)c4c(n3)NC(=O)C4(C)c3ccc(Br)cc3)nc(CCC(F)(F)C(F)(F)F)nc21 (single isomer, unassigned) [Example 10, 4-Amino-5-(4-bromophenyl)-5-methyl-2-(1-methyl-6-(3,3,4,4,4-pentafluorobutyl)-1H-pyrazolo[3,4-d]pyrimidin-4-yl)-5H-pyrrolo[2,3-d]pyrimidin-6(7H)-one] | 197 | 116
[2H]C([2H])([2H])n1ncc2c(-c3nc(N)c4c(n3)NC(=O)C4(C)c3ccc(-c4nnco4)cc3)nc(CCC(F)(F)C(F)(F)F)nc21 (single isomer, unassigned) [Example 45, 5-(4-(1,3,4-Oxadiazol-2-yl)phenyl)-4-amino-5-methyl-2-(1-methyl-6-(3,3,4,4,4-pentafluorobutyl)-1H-pyrazolo[3,4-d]pyrimidin-4-yl)-5H-pyrrolo[2,3-d]pyrimidin-6(7H)-one] | 716 | 138
[2H]C([2H])([2H])n1ncc2c(-c3nc(N)c4c(n3)NC(=O)C4(C)c3ccc(-c4cnn(C)c4)cc3)nc(CCC(F)(F)C(F)(F)F)nc21 (single isomer, unassigned) [Example 46, 4-Amino-5-methyl-5-(4-(1-methyl-1H-pyrazol-4-yl)phenyl)-2-(6-(3,3,4,4,4-pentafluorobutyl)-1-trideuteriomethyl-1H-pyrazolo[3,4-d]pyrimidin-4-yl)-5H-pyrrolo[2,3-d]pyrimidin-6(7H)-one] | 90 | 91
Cn1nnc2c(-c3nc(N)c4c(n3)NC(=O)C4(C)c3ccc(F)cc3)nc(Cc3cccc(F)c3F)nc21 (single isomer, unassigned) [Example 66] | 156 | 69
Cn1ncc2c(-c3nc(N)c4c(n3)NC(=O)C4(C)C#N)nc(CCC(F)(F)C(F)(F)F)nc21 (single isomer, unassigned) [Example 49, 4-Amino-5-methyl-2-(1-methyl-6-(3,3,4,4,4-pentafluorobutyl)-1H-pyrazolo[3,4-d]pyrimidin-4-yl)-6-oxo-6,7-dihydro-5H-pyrrolo[2,3-d]pyrimidine-5-carbonitrile] | 248 | 105
Cn1ncc2c(-c3nc(N)c4c(n3)NC(=O)C4(C)C(N)=O)nc(CCC(F)(F)C(F)(F)F)nc21 (single isomer, unassigned) [Example 30, 4-Amino-5-methyl-2-(1-methyl-6-(3,3,4,4,4-pentafluorobutyl)-1H-pyrazolo[3,4-d]pyrimidin-4-yl)-6-oxo-6,7-dihydro-5H-pyrrolo[2,3-d]pyrimidine-5-carboxamide] | 245 | 84
Cn1ncc2c(-c3nc(N)c4c(n3)NC(=O)C4(C(=O)NC3CC3)C3CC3)nc(CCC(F)(F)C(F)(F)F)nc21 (single isomer, unassigned) [Example 33, 4-Amino-N,5-dicyclopropyl-2-(1-methyl-6-(3,3,4,4,4-pentafluorobutyl)-1H-pyrazolo[3,4-d]pyrimidin-4-yl)-6-oxo-6,7-dihydro-5H-pyrrolo[2,3-d]pyrimidine-5-carboxamide] | 53 | 112
